Consider 8 molecules from PubChem BioAssay (NCI).

Test systems include SF-539 CNS; RPMI-8226 leukemia; OVCAR-5 ovarian; NCI-H522 lung; HOP-92 NSCLC; HCT-116 colon; OVCAR-4 ovarian; SNB-19 CNS; A549 NSCLC; NCI-H460 lung; SW-620 colon; SN12C renal; A498 renal; SNB-75 CNS; NCI-H23 lung; SK-MEL-2 melanoma; OVCAR-3 ovarian; HT29 colon; SR leukemia.
Holding throughout (assay): NCI-60 cell line screen, 48 h

Each structure is given as a SMILES string.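 Assay format: 96-well plates, 48-hour exposure. TGI denotes the concentration required for complete inhibition of growth.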

Consider `CC1=CC(C)C/C=C/C2C3OC3(C)C(C)C3C(Cc4c[nH]c5ccccc45)NC(=O)C23C(=O)C=CC(=O)C1O` (centres undefined), for which the TGI came to 29.8 µM with SF-539 CNS; 5.06 µM in the test on RPMI-8226 leukemia; 27.5 µM with OVCAR-5 ovarian; 8.03 µM in the test with NCI-H522 lung; 3.13 µM in the test on HOP-92 NSCLC; 8.4 µM in the test on HCT-116 colon. The TGI in the test on OVCAR-4 ovarian was 24.3 µM; with SNB-19 CNS, > 46.6 µM; in the test with A549 NSCLC, 26.6 µM; in the test on NCI-H460 lung it was 27.6 µM; in the test with SW-620 colon it was 25.9 µM; in the test on SN12C renal it was 30.7 µM. Also, the TGI in the test on A498 renal came out at 0.935 µM; in the test with SNB-75 CNS, 8.44 µM; in the test with NCI-H23 lung it was 28.5 µM; in the test on SK-MEL-2 melanoma, 34.6 µM; with OVCAR-3 ovarian it was 12.1 µM; in the test with HT29 colon, 6.66 µM.

Turning to `Nc1ccc2c(c1)N(C(=O)c1cc3cc(NC(=O)c4cc5ccccc5o4)ccc3[nH]1)CC2CCl` (centres undefined), the TGI in the test with RPMI-8226 leukemia is 0.287 µM; in the test with OVCAR-5 ovarian, > 38.3 µM; with HOP-92 NSCLC it was 1.47 µM; in the test on HCT-116 colon, > 32.2 µM; with OVCAR-4 ovarian, 3.71 µM; in the test with SNB-19 CNS it was 16.1 µM. Besides, the TGI in the test with A549 NSCLC is > 34.1 µM; in the test on NCI-H460 lung, > 32.8 µM; with SW-620 colon it was 12.6 µM; with SN12C renal, > 46.4 µM; in the test with A498 renal it was 0.544 µM; in the test with SNB-75 CNS, 0.469 µM. The TGI in the test on NCI-H23 lung is 0.161 µM; with SK-MEL-2 melanoma, 0.398 µM; with OVCAR-3 ovarian it was 0.56 µM; in the test on HT29 colon it was > 32.7 µM.

`O=C(O)c1ccc(Nc2c3ccccc3nc3ccccc23)cc1`: the TGI with SF-539 CNS, with RPMI-8226 leukemia, with OVCAR-5 ovarian, in the test with NCI-H522 lung, with HOP-92 NSCLC and in the test with HCT-116 colon was > 100 µM throughout. Further, the TGI in the test with OVCAR-4 ovarian, in the test with SNB-19 CNS, with A549 NSCLC, with NCI-H460 lung, with SW-620 colon and in the test on SN12C renal was > 100 µM throughout. Besides, the TGI with A498 renal, in the test with SNB-75 CNS, in the test with NCI-H23 lung, in the test with SK-MEL-2 melanoma, with OVCAR-3 ovarian and with HT29 colon was > 100 µM in each case.

On to `CC(=O)Nc1ccc(C(=O)NN2C(=O)CSC2c2ccc([N+](=O)[O-])cc2)cc1` (centres undefined), for which the TGI with SF-539 CNS, with RPMI-8226 leukemia, with OVCAR-5 ovarian, in the test with HOP-92 NSCLC, in the test with HCT-116 colon and in the test on OVCAR-4 ovarian was > 100 µM throughout. Also, the TGI in the test with SNB-19 CNS, with A549 NSCLC, in the test on NCI-H460 lung, in the test on SW-620 colon, with SN12C renal and in the test on A498 renal was > 100 µM in each case. The TGI in the test on SNB-75 CNS, with NCI-H23 lung, in the test with SK-MEL-2 melanoma, with OVCAR-3 ovarian and with HT29 colon was > 100 µM in each case.

Consider `CCOC(=O)c1c(-c2ccc(OC)cc2)c(C#N)c(=S)n(C2OC(COC(C)=O)C(OC(C)=O)C(OC(C)=O)C2OC(C)=O)c1-c1ccccc1` (centres undefined), for which the TGI with SF-539 CNS, in the test with SR leukemia, with RPMI-8226 leukemia, in the test with OVCAR-5 ovarian, with HOP-92 NSCLC and with HCT-116 colon was > 100 µM each time. For the same molecule, the TGI in the test on OVCAR-4 ovarian, with SNB-19 CNS, with A549 NSCLC, in the test on NCI-H460 lung, in the test on SW-620 colon and in the test on SN12C renal was > 100 µM each time. In addition, the TGI with SNB-75 CNS, in the test with NCI-H23 lung, in the test on SK-MEL-2 melanoma, in the test on OVCAR-3 ovarian and with HT29 colon was > 100 µM throughout.

For the molecule `COc1ccc(C2COc3cc(OC(C)=O)c(OC(C)=O)cc3C2)cc1` (centres undefined), the TGI in the test on SF-539 CNS is 37.8 µM; with RPMI-8226 leukemia it was 36.9 µM; with OVCAR-5 ovarian it was 51.7 µM; in the test on NCI-H522 lung, 6.3 µM; in the test on HOP-92 NSCLC it was 23.6 µM; in the test on HCT-116 colon it was 47.3 µM. Further, the TGI is 36.8 µM with OVCAR-4 ovarian; 33.4 µM in the test with SNB-19 CNS; 52.5 µM in the test on A549 NSCLC; 41.7 µM in the test on NCI-H460 lung; 46.5 µM in the test on SW-620 colon; 32.9 µM in the test with SN12C renal. The TGI was 8.32 µM in the test with A498 renal; 25.8 µM in the test with SNB-75 CNS; 63.1 µM in the test with NCI-H23 lung; 58.7 µM in the test with SK-MEL-2 melanoma; 39.9 µM in the test with OVCAR-3 ovarian; 56.1 µM in the test with HT29 colon.

Regarding `O=C(O)CC1NC(/C(=C/c2ccccc2)NC(=O)c2ccccc2)OC1=O` (centres undefined), the TGI with SF-539 CNS was 44.2 µM; in the test with RPMI-8226 leukemia, 63.4 µM; with OVCAR-5 ovarian it was > 100 µM; in the test with NCI-H522 lung, 33.5 µM; in the test with HOP-92 NSCLC, > 100 µM; in the test on HCT-116 colon, 42.9 µM. The TGI was > 100 µM with OVCAR-4 ovarian; 67.6 µM with SNB-19 CNS; > 100 µM in the test on A549 NSCLC; 69.6 µM in the test with NCI-H460 lung; 42 µM in the test on SW-620 colon; > 100 µM with SN12C renal. Moreover, the TGI in the test on A498 renal is > 100 µM; with SNB-75 CNS, 74 µM; in the test on NCI-H23 lung it was > 100 µM; in the test on SK-MEL-2 melanoma it was 66.6 µM; in the test on OVCAR-3 ovarian it was 51.2 µM; in the test with HT29 colon, > 100 µM.

Regarding `OC1(C(F)(F)F)OCCN=C1C(F)(F)F` (centres undefined), the TGI with RPMI-8226 leukemia, in the test on OVCAR-5 ovarian, with NCI-H522 lung, in the test on HOP-92 NSCLC, in the test on HCT-116 colon and with OVCAR-4 ovarian was > 100 µM in each case. Moreover, the TGI in the test with SNB-19 CNS, in the test on A549 NSCLC, in the test on NCI-H460 lung, in the test with SW-620 colon, in the test with SN12C renal and in the test with A498 renal was > 100 µM in each case. For the same molecule, the TGI with SNB-75 CNS, in the test with NCI-H23 lung, in the test on SK-MEL-2 melanoma, in the test with OVCAR-3 ovarian and in the test on HT29 colon was > 100 µM each time.
